4 compounds from patent publication US10683297B2 (Sunshine Lake Pharma Co., Ltd., priority 2017, dated 2020) can be followed below.

The target of one assay is T1, FLT3 (h) (Homo sapiens, UniProt P36888).
T1 construct: purchased Millipore UK Ltd (assays performed there as a service)
T1 sequence (P36888 27-993): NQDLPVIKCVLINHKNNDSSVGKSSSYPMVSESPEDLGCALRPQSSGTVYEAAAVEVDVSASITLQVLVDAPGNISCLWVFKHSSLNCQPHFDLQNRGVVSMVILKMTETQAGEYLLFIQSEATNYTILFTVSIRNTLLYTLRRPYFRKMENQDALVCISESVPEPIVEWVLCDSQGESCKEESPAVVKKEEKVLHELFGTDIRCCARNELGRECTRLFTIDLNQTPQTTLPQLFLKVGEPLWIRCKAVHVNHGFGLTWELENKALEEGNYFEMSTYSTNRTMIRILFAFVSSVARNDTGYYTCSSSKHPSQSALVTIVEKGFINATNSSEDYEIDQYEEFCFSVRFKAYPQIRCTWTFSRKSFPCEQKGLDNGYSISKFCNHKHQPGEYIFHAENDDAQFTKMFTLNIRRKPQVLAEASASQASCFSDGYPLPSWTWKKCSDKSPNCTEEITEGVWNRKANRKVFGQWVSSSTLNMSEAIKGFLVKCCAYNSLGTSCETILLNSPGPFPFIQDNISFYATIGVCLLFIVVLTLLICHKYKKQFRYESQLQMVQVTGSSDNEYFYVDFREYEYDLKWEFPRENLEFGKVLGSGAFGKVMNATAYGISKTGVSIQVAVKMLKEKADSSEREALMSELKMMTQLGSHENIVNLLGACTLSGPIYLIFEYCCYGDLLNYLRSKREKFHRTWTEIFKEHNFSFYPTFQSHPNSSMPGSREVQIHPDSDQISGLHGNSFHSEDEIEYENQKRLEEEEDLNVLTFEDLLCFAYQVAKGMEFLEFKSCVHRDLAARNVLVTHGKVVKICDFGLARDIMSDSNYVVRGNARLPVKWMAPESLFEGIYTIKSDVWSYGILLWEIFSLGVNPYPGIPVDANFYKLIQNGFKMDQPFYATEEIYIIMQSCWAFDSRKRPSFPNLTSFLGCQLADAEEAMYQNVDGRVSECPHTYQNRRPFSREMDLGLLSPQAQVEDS
Put plainly: FLT3 (h) kinase assay. Type of assay: biochemical. The note with it: [γ-33P-ATP] 10 μM or KM values; cells of the FLT3 (h) column without (Flt4) tag. The protocol: Kinase assays can be performed by measurement of incorporation of γ-^33P ATP into immobilized myelin basic protein (MBP). High binding white 384 well plates (Greiner) are coated with MBP (Sigma # M-1891) by incubation of 60 μL well of 20 μg/mL MBP in Tris-buffered saline (TBS; 50 mM Tris pH 8.0, 138 mM NaCl, 2.7 mM KCl) for 24 h at 4° C. Plates are washed 3× with 100 μL TBS. Kinase reactions are carried out in a total volume of 34 μL in kinase buffer (according to the need to make, for example, 5 mM Hepes pH 7.6, 15 mM NaCl, 0.01% bovine gamma globulin (Sigma #1-5506), 10 mM MgCl2, 1 mM DTT, 0.02% TritonX-100). Compound dilutions are performed in DMSO and added to assay wells to a final DMSO concentration of 1%. Each data point is measured in duplicate, and at least two duplicate assays are performed for each individual compound determination. Enzyme is added to final concentrations of 10 nM or 20 nM, for example. A mixture of unlabeled ATP and γ-^33P ATP is added to start the reaction (2×10^6 cpm of γ-^33P ATP per well (3000 Ci/mmole) and 10 μM unlabeled ATP, typically. The reactions are carried out for 1 hour at room temperature with shaking. Plates are washed 7× with TBS, followed by the addition of 50 μL well scintillation fluid (Wallac). Plates are read using a Wallac Trilux counter. This is only one format of such assays; various other formats are possible, as known to one skilled in the art.
The above assay procedure can be used to determine the IC50 for inhibition and/or the inhibition constant, Ki. […] The IC50 value is estimated by preparing a 10 point curve using a ½ log dilution series (for example, a typical curve may be prepared using the following compound concentrations: 3 μM, 1 μM, 0.3 μM, 0.1 μM, 0.03 μM, 0.01 μM, 0.003 μM, 0.001 μM, 0.0003 μM and 0 μM).
FLT3 (h) is incubated with 8 mM MOPS pH 7.0, 0.2 mM EDTA, 50 μM […], 10 mM MgAcetate and [γ-^33P-ATP] […] The reaction is initiated by the addition of the MgATP mix. […]

For assay [1], the system named is PMA-induced increase in mouse ear thickness and weight. In words: Topical PMA-induced acute atopic dermatitis in ICR mice. The class given is in vivo. To be noted: ICR female mice, 0.3 mg/ear/bid topical. On the procedure: ICR female mice (20-30 g), five mice or nine mice/group, were used in this study. Five micrograms of PMA (phorbol 12-myristate 13-acetate) in 20 μL of ethanol was applied topically to the anterior and posterior surface of the right ear of each mouse. Twenty microliters of vehicle (ethanol/acetone ([…])=1/1); 0.3 mg of EX. 68 ([…]); EX. 76, EX. 50, EX. 92 or EX. 65 (0.3 mg […]) were administrated to the same areas 30 minutes before and 15 minutes after PMA application. The thickness of right ears of each mouse was measured 6 hours after PMA stimulation. Ear weight of right ears of each mouse was weighed with analytical balance Each value represents the Mean±Sem. Statistical significance compared with model groups (*P<0.05; **P<0.01). Tables 5-1, 5-2 and 5-3 listed the inhibitory effect on PMA-induced increase in mouse ear thickness and weight. The compounds of the present invention have a good inhibitory effect on PMA-induced increase in mouse ear thickness and weight.

Molecules are shown by their SMILES. Marks after values point to notes of the source that are not given here.

A word on the IC50: it is the concentration that inhibits the measured activity by half. A high value points to weaker potency in that assay. `CCC1CN(c2ccc(C#N)cn2)CCC1Nc1nc(Nc2ccn3c(C)cnc3c2)ncc1Cl` (stereo not shown) [Example 2, 6-(4-((5-chloro-2-((3-methylimidazo[1,2-a]pyridin-7-yl)amino)pyrimidin-4-yl)amino)-3-ethylpiperidin-1-yl)nicotinonitrile] returned an IC50 on FLT3 (h) of 287 nM.
`CCC1CN(c2ccc(C#N)nn2)CCC1Nc1nc(Nc2ccn3c(C)cnc3c2)ncc1Cl` (stereo not shown) [Example 3, 6-(4-((5-chloro-2-((3-methylimidazo[1,2-a]pyridin-7-yl)amino)pyrimidin-4-yl)amino)-3-ethylpiperidin-1-yl)pyridazine-3-carbonitrile] registered an IC50 against FLT3 (h) of 591 nM.
With `Cc1cnc2cc(Nc3ncc(Cl)c(NC4CCN(c5ccc(C#N)nn5)CC4)n3)ccn12` [Example 12, 6-(4-((5-chloro-2-((3-methylimidazo[1,2-a]pyridin-7-yl)amino)pyrimidin-4-yl)amino)piperidin-1-yl)pyridazine-3-carbonitrile], inhibition against FLT3 (h) was half-maximal at 667 nM (IC50).
Turning to `CC(C)(O)c1cnc2cc(Nc3ncc(Cl)c(NC4CCN(c5ccc(C#N)cn5)CC4)n3)ccn12` [Example 68, 6-(4-((5-chloro-2-((3-(2-hydroxypropan-2-yl)imidazo[1,2-a]pyridin-7-yl)amino)pyrimidin-4-yl)amino)piperidin-1-yl)nicotinonitrile], the “Weight Inhibition ratio” value in assay [1] turned out to be 80.6%. In addition, the “thickness (right ear)” value in assay [1] (30 minutes before and 15 minutes after PMA, 6 hours after PMA, Mean±Sem) was 0.219 ± 0.007** mm. Moreover, the “Weight (right ear)” value in assay [1] (30 minutes before and 15 minutes after PMA, Mean±Sem) is recorded as 18.11 ± 1.14* mg. Besides, the “thickness Inhibition ratio” value in assay [1] (6 hours after PMA) is reported as 86.6%.
